Data set [1] relates to Balanus amphitrite nauplii. Description: Barnacle efficacy test. The data set is classed as in vivo. The procedure: This efficacy tests was carried out by using Balanus amphitrite nauplii (Crustacea: Cirripedia). Specimens of this organism are collected in nature, and then maintained and reared in our laboratories, following a standard methodology. Adult organisms regularly produce larvae at the second naupliar stage, characterized by the typical triangular carapace, with a shield shape. […] Stage II nauplii have been used; immediately after their emission from adults larvae were divided and put in a beaker with […] filtered natural sea-water.

A short description of data set [2]: Hydrolysis test carried out in the dark. In kind it is physicochemical. From the text:
From the hydrolysis test carried out in the dark, MNB and MPB appear to be readily degradable at a pH compatible with environmental conditions.

Another data set has as its system Tigriopus fulvus. Description: Copepods efficacy test. The data set is classed as in vivo. To be noted: Tigriopus fulvus nauplii. The procedure:
For that, efficacy test was carried out by using Tigriopus fulvus, it is a shallow-water marine species (Crustacea, Copepoda, Harpactico.da) characterized by […], all variously deep-orange coloured: five nauplius substages and five copepodid substages. Nauplii have a subcircular shape, are characterized by a single red eye, and develop within 6 to 7 days. Copepods are recognisable because of their abdominal segment formation, although the last substage is difficult to distinguish from the adult female at the end of the 7-day development period. Adult sizes range from 0.8 to 1.0 mm for males and from 1.0 to 1.2 mm for females. Sexual dimorphism is detectable only by the pincer shape of antenna 1, whereas ovigerous females can quickly be recognized because of their large egg sacs. T. fulvus is a vector for the transport of Vibrio spp; it is well documented that the persistence of V. cholerae in the aquatic environment is facilitated by its ability to colonize various substrates, including zooplankton surfaces (i.e., copepods).
Copepods, sampled in their natural habitat, have been moved through suitable containers to the laboratory, where they were subjected to a specific treatment. They were first filtered through a […] mesh, then washed with sterile sea-water and transferred to small 3 litres aquaria, with natural filtered (0.22 μm) sea water, T=20+0,5° C. Copepods were fed with microalgae (Chlorella spp, Tetraselmis suecica) and commercial yeast (Saccharomices spp). After the acclimatization period (one month), about 500 females were chosen and separated. The naupliar stage was then used for the efficacy test. […] Nauplii were used 24 hours after their hatching, multiwell plates (25 wells) were used for these tests, about 15 individuals for each well. Each concentration was performed in six replicates, plates were kept at dark, at 20° C.

In data set [3] the test system is Pseudomonas elongata NCIMB 1141. Briefly: Disk diffusion test (Kirby-Bauer). The data set is classed as cell-based. The note with it: 100 μg MNB disk, 24 hours in the dark. The procedure: (§1) a) Kirby-Bauer assay was carried out after 24 hours in the dark.
(§2) In the disk diffusion susceptibility test, paper disks containing known amounts of MNB are placed on the surface of an agar plate that has been inoculated confluently with a standardized suspension of an indicator bacterial strain. The antimicrobial agent diffuses into the medium causing a zone of inhibition of growth of the strain around the disk corresponding to the susceptibility of the strain to that agent. Interpretative zone diameters have been established to permit classifying an isolate as belonging to the susceptible, intermediate resistance, or resistant categories of susceptibilities to an antimicrobial agent.
(§3) The disk diffusion method on agar plates was used to assess the biocide efficacy of a single concentration of MNB ([…]) against four aerobic quality control strains (Pseudomonas aeruginosa ATCC10145, Pseudomonas elongata NCIMB 1141, Bacillus subtilis ATCC 10774 and Staphylococcus aureus ATCC 25923).
(§4) Test results are summarised in Table 5 and represent the size of the inhibition halos in millimetres after contact with 100 μg MNB (Disk diffusion method).
A general note: In agar diffusion tests the substance spreads into inoculated agar from a disc or well.

The subject of data set [4] is Bacillus subtilis ATCC 10774. Description: Disk diffusion test (Kirby-Bauer). In kind it is cell-based. The note with it: 100 μg MNB disk, 24 hours in the dark. The method, then:
as §1, §2, §3, §4

The test system of data set [5] is Pseudomonas aeruginosa ATCC 10145. Briefly: Disk diffusion test (Kirby-Bauer). In kind it is cell-based. The note with it: 100 μg MNB disk, 24 hours in the dark. The method, then:
as §1, §2, §3, §4

Data set [6] concerns Staphylococcus aureus ATCC 25923. Briefly: Disk diffusion test (Kirby-Bauer). The data set is classed as cell-based. The note with it: 100 μg MNB disk, 24 hours in the dark. The procedure:
as §1, §2, §3, §4

Data set [7] has as its system Mytilus galloprovincialis. Briefly: Mussels efficacy test (trocophora and veliger larvae). To be noted: after 24 hours. In kind it is in vivo. The method, then: Mussels are bivalve shellfish that grow quickly and profusely. They have two identical, convex shells. These shells are elongate, triangular and joined by a rubbery hinge ligament on the upper side. There are three main periods in the Mytilus galloprovincialis life cycle: the larval, juvenile, and adult stages. The larvae are planktonic (float in water column) during their initial three life stages: trochophore, veliger, and pediveliger.
Efficacy tests were carried out by using two larval stages of this organism: trocophora and veliger. Adult specimens of this organism were collected and transferred into our laboratories, where they were cleaned from debris, and put in single 200 ml beakers, with […] filtered natural sea-water. Through a thermal shock, sexual products (eggs and sperma) were obtained. Fertilized eggs (about 300.000) were filtered and put in 1000 ml beakers, with […] filtered natural sea-water. Cultures were maintained at 20° C., with a photoperiod of 16:8 light:dark. After the first 24 hours post-fertilization, trocophora stage is present. Larvae were reared and fed with a planktonic alga, Pavlova lutheri, every day they were filtered, and water was changed. Veliger stage is reached about 48-72 hours after fertilization.

Data set [8] has as its system cysts (resting stage) of Scrippsiella trochoidea. Briefly: Inhibition of dynoflagellates cysts hatching. In kind it is cell-based. The note with it: after 6 days. From the text: For this test, cysts (resting stage) of Scrippsiella trochoidea (Dinophyta) were used. Scrippsiella trochoidea (order Peridiniales, subfamily Calciodinelloideae) i.e. a non-toxic autotrophic orthoperidinioid dinoflagellate producing calcareous resting cysts which are abundant in coastal marine sediments. The maturation period for S. trochoidea cysts rang between 2 and 5 weeks.
S. trochoidea cysts are very convenient for experimental purposes because their sorting and culturing is comparatively easy, the cysts being relatively abundant in sediments.
Sediments were sampled in Mar Piccolo (Taranto). The utilized method allowed us to pick up the superficial sediment layer of a certain area entirely, where most of the cysts is present. The sample was immediately kept at dark at 4° C. Sediments collected about one year ago were utilized, in order to be sure that the hatching refractoriness period of cysts was finished. The sample (about 2 ml of sediment) was then dissolved in 0,45 μm filtered natural sea-water, sonified for 1 minute (Branson Sonifier) in order to brake sediment clots, resuspended in filtered sea-water and filtered on a Endecotts sieve, with a 20 μm steel mesh. […]

For the molecule `CC1(S(=O)(=O)O)CC(=O)c2ccccc2C1=O.NC(=O)c1cccnc1` (centres unmarked) [MNB, menadione nicotinamide bisulphite], the LC50 (in general, the concentration lethal to half of the exposed cells or organisms) in [1] (24 hours) worked out at 0.228 µg/mL; in [1] (48 hours), 0.222 µg/mL; in the data set on Tigriopus fulvus (24 hours), 0.156 µg/mL; in the data set on Tigriopus fulvus (48 hours) it was 0.071 µg/mL; in the data set with Tigriopus fulvus (72 hours), 0.039 µg/mL; in data set [7] (trocophorae), 0.108 µg/mL. The LC50 is 0.167 µg/mL in [7] (veliger) and 2,65 mg/L in data set [8]. Besides, the “½ LIFE (hydrolysis)” value in data set [2] (pH 6, 8, in the dark) is 48 h; in data set [2] (pH 9, in the dark), less than 3 h. The “size of the inhibition halos” value worked out at 20 mm in data set [3], 0 mm in data set [4], 0 mm in [5] and 20 mm in data set [6].

These data come from patent publication US20040232089A1, “Biocidal compounds for treating water” (VANETTA S.p.A., priority 2003, published 2004).
